Test results from patent US12606551B2, “Salt of tetrahydroisoquinoline derivative, preparation method therefor, and medical use thereof” (ZHEJIANG HISUN PHARMACEUTICAL CO., LTD., priority 2020, dated 2026).
Values after ≈ are worked out from the molar mass of the structure shown.

Experiments:
[1] = Pharmacokinetic assay in SD rats; assay type: in vivo; details: PO 60 mg/kg; for AUC(0-inf) / Cmax / half-life / MRT: both sexes, Sprague-Dawley, rat, plasma; for AUC(0-inf): read-out: Area under the curve AUC0-∞; for Cmax: read-out: Blood concentration Cmax; for half-life: read-out: Half life T½ (converted); for MRT: read-out: Residence time MRT
Method: SD rats were taken as the test animals, and the compounds of the present invention were administrated to the rats by intravenous injection or gavage. Then the drug concentrations in the plasma at different times were measured using LC/MS/MS method to study the pharmacokinetic characteristics of the compounds of the present invention in rats.
Six healthy adult Sprague Dawley (SD) male rats were purchased from Vital River Laboratory Animal Technology Co., Ltd.
76.32 mg of compound 1m was weighed and dissolved in 12.72 mL of 0.5% sodium carboxymethyl cellulose (CMC-Na), the mixture was mixed by vortex for 1 minute until the compound was completely suspended, and the final prepared concentration was 6 mg/mL;
76.61 mg of compound 1 was weighed and dissolved in 12.768 mL of 0.5% sodium carboxymethyl cellulose (CMC-Na), the mixture was mixed by vortex for 1 minute until the compound was completely suspended, and the final prepared concentration was 6 mg/mL.
Compounds 2 to 4 were weighed and dissolved in an appropriate amount of 0.5% sodium carboxymethyl cellulose (CMC-Na), the mixture was mixed by vortex for 1 minute until the compound was completely suspended, and the final prepared concentration was 6 mg/mL.
Six healthy adult SD rats, half male and half female, were divided into 2 groups, 3 rats in each group. The rats were fasted overnight, and then intragastrically administered (po) with the compound 1m or compounds 1 to 4 of the present invention at a dose of 60 mg/kg.
About 0.25 mL of blood was collected from the jugular vein before the administration and 0.25 hours, 0.5 hours, 1 hour, 2 hours, 4 hours, 6 hours, 8 hours and 24 hours after the administration, and heparin sodium was used for anticoagulation. The blood samples were placed on ice after collection, and then centrifuged to separate the plasma (centrifugation conditions: 7000 rpm, 5 minutes). The collected plasma was stored below −70° C. until analysis.
300 μL of methanol (comprising internal standard working solution, Loratadine 800 ng/mL) was added to 100 μL of plasma sample, then the mixture was mixed by vortex for 5 minutes, then the obtained mixture was centrifuged at 10,000 rpm for 10 minutes, and 1 μL of the resulting mixture was taken and subjected to LC-MS/MS analysis.

[2] = Solubility test; assay type: physicochemical
Method: According to the conventional method for solubility assay, the solubility of the compounds of the present invention in the following four different systems was tested: phosphate salt buffer PBS (pH7.4), methanol, 0.1% HCl and water.

[3] = molecular target: T1, human AT2R (Homo sapiens, UniProt P50052); test: Antagonistic activity against human AT2R ligand binding (Tag-lite HTRF); details: Tb-labeled-AT2R cells, red agonist fluorescent ligand, 1 hour at 25° C.
T1 construct: Tb (terbium) label on the receptor; expressed in transfected cells
T1 sequence (P50052 1-363): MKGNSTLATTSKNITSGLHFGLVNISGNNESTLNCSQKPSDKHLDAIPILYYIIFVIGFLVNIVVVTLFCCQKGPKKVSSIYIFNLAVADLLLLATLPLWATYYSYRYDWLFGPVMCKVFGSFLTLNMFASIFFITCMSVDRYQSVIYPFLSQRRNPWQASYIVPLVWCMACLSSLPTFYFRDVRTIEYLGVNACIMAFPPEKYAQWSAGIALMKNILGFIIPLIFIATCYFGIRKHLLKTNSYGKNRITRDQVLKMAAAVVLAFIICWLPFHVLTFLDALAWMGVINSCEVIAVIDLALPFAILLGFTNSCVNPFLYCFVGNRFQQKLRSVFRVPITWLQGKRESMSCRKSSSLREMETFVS
Excerpt: Test Example 1 Test of the antagonistic activity of the compounds of the present invention against human AT2R ligand binding.
Angiotensin II Type-2 receptor (ATR) is involved in neuronal differentiation and regeneration, cell proliferation and angiogenesis, and maintenance of bone mass. ATR inhibitors can be used for treating pain and abnormal neuroregenerative diseases, inhibiting the proliferation of tumor cells and increasing bone mass. In the following methods, the degree of antagonism of the compounds of the present invention against AT2R was studied through AT2 ligand binding assay.
According to standard methods, test compounds (compound 1m and compounds 1-4) were respectively dissolved in dimethyl sulfoxide to be prepared into stock solutions of 10 mM.
(2) The test compound was subjected to 5-fold dilution with a total of 10 concentration gradients;
(3) The diluted compound in step (2) was transferred to a working plate (3657, Corning) at 160 nL/well, 200 g at room temperature for 1 minute; […]
(11) The reaction plate was centrifuged at 200 g for 1 minute at room temperature, then kept still at room temperature 25° C. for 1 hour, and centrifuged at 200 g for 1 minute at room temperature. Data were collected using Envision HTRF microplate reader, and IC50 was calculated using nonlinear fitting formula.

[4] = methanol, organic solvent or mixture

SMILES | Increase of area under the curve compared with compound 1m ([1]; versus free acid compound 1m) | Increase of plasma concentration compared with compound 1m ([1]; versus free acid compound 1m) | AUC(0-inf) [1] | Cmax [1] | half-life [1] | MRT [1] | solubility ([2]; aqueous buffer, PBS (pH 7.4)) | solubility [2, 4] | solubility ([2]; water) | IC50 [3]
COc1ccc(COc2c(OC)ccc3c2C[C@@H](C(=O)[O-])N(c2nc4ccc(F)cc4o2)C3)nc1.[Na+] [Compound 1] | 14 times | more than 50 times | 328 ± 53.2 µg·h/mL | 127 ± 12.7 µg/mL | 3.57 ± 0.85 h | 2.59 ± 0.41 h | 8690 µg/mL | > 10000 µg/mL | 6410 µg/mL | 6 nM
COc1ccc(COc2c(OC)ccc3c2C[C@@H](C(=O)O)N(c2nc4ccc(F)cc4o2)C3)nc1 [Compound 1m] |  |  | 22.2 ± 9.1 µg·h/mL | 2.4 ± 0.53 µg/mL | 3.73 ± 1.25 h | 6.13 ± 1.13 h | 150 µg/mL (≈ 313 µM) | 340 µg/mL (≈ 709 µM) | 30 µg/mL (≈ 62.6 µM) | 
